The record followed here is patent publication US9968631B2, “Method for treatment of pulmonary fibrosis” (Galectin Therapeutics, Inc., priority 2013, dated 2018).

Entries after “also recorded” stand apart in the source; their conditions may differ.

The subject of assay [1] is bleomycin-induced pulmonary fibrosis in C57Bl/6 mice. The assay can be described thus: Late treatment of pulmonary fibrosis induced by bleomycin in C57Bl/6 mice. In kind it is in vivo, mouse. The following applies: for lung pathology with trichrome stain (fibrosis): FIG. 14; for lung pathology with H & E (fibrosis): FIG. 15; for overall antifibrotic treatment effect: GM-CT-01 120 mg/kg, GR-MD-02 60 mg/kg IV days 10, 13, 16, 20; for Modified Ashcroft Index score vs vehicle: change did not reach significance, FIG. 11; for general fibrosis score vs vehicle: differences did not reach statistical significance, FIG. 12; for Inflammation score vs vehicle: differences not statistically significant, FIG. 13; for percent of fibrotic lung (percent of lung affected): not statistically significant. On the procedure:
In these experiments, treatment was initiated after the time when the inflammatory reaction is known to have subsided and the process is one of primarily fibrogenesis. Pulmonary fibrosis was induced in animals using bleomycin at 2.25 U/kg at day 0 as described above. Animals were treated using a GM compound intravenously (GM-CT-01) or GA-RG compound intravenously (GR-MD-02) as described in Table 2.
Animals were euthanized on Day 21 and the lungs were weighed. Data shown in FIG. 9 represent group means and standard error of the means.
The total lung hydroxyproline content was measured. Data shown in FIG. 10 represent group mean and expressed as microgram of hydroxyproline per mg of lung tissue.

For assay [2] the test system is unchanged. As to the kind of experiment: Early treatment of pulmonary fibrosis induced by bleomycin in C57Bl/6 mice. The following applies: for lung weight vs vehicle-treated mice / total lung hydroxyproline content vs vehicle-treated mice: Day 21, GM-CT-01 120 mg/kg; for lung weight vs vehicle-treated mice: GR-MD-02 60 mg/kg IV days -1, 2, 6, 9, 13, 16, 20, FIG. 2; for total lung hydroxyproline content vs vehicle-treated mice / Modified Ashcroft Index score, difference vs vehicle, p (unpaired t-test): GR-MD-02 60 mg/kg IV; for lung pathology with trichrome stain (fibrosis): FIG. 7; for Modified Ashcroft Index Score compared to the vehicle group: histologic analysis; for general fibrosis score, difference vs vehicle, p (unpaired t-test) / Inflammation score, difference vs vehicle, p (unpaired t-test) / Modified Ashcroft Index score, difference vs vehicle, p (unpaired t-test): outliers removed; for general fibrosis score, difference vs vehicle, p (unpaired t-test): FIG. 5; for Inflammation score, difference vs vehicle, p (unpaired t-test): FIG. 6; for Modified Ashcroft Index score, difference vs vehicle, p (unpaired t-test): GM-CT-01 120 mg/kg, FIG. 4. Type of assay: in vivo, mouse. The method, then: Instillation of bleomycin in the trachea induces changes similar to diffuse pulmonary fibrosis and/or fibrosing alveolitis in humans. There is an increase in deposition and net synthesis of collagen in the lung with this model.
This model can be used to evaluate therapy started in the inflammatory phase of the belomycin insult (started<7 day after bleomycin) or after the inflammatory phase and during fibrogenesis (started>7 day after bleomycin). In this example, early therapy was evaluated.
The GM (GM-CT-01) and GA-RG (GR-MD-02) compounds were evaluated as preventative therapy in this mouse model.
Pulmonary fibrosis was induced in animals using intra-tracheal instillation of bleomycin at 2.25 U/kg. Animals were treated using a GM compound (GM-CT-01) or GA-RG compound (GR-MD-02) delivered by intravenous infusion as described in Table 1.
Animals were euthanized on Day 21 and the lungs were weighed. Data shown in FIG. 2 represent group means and SEM. Statistical comparison among all groups was performed using one-way ANOVA with Newman-Keuls multiple comparison test.
After euthanasia, the total lung hydroxyproline content was measured. Data shown in FIG. 3 represent group mean and SEM and expressed as microgram of hydroxyproline per mg of lung tissue. Statistical comparison to the “vehicle+Bleomycin” group was performed using one-way ANOVA with Holm-Sidak's multiple comparison test.

Setting [3] is: comparison in the experience of the laboratory.

In the case of 1,4-β-D-Galactomannan [GM-CT-01], the “total lung hydroxyproline content (in words)” value in assay [1] (Day 21, GM-CT-01 120 mg/kg IV days 10, 13, 16, 20, compared with GR-MD-02, FIG. 10) is “less of a decrease”. Further, in assay [1], the “lung pathology with trichrome stain (fibrosis)” value was “less effect”, the “lung pathology with H & E (fibrosis)” value was “some reduction in the fibrosis”, the “overall antifibrotic treatment effect” value is listed as “effective at reducing pulmonary fibrosis; also recorded: more modest positive treatment effect” and the “Modified Ashcroft Index score vs vehicle” value is listed as “little change”. In assay [1], the “general fibrosis score vs vehicle” value is recorded as “reduction in the fibrosis score”, the “Inflammation score vs vehicle” value was “no change” and the “percent of fibrotic lung (percent of lung affected)” value is recorded as “notably reduced”. In assay [2], the “lung weight vs vehicle-treated mice” value is “significantly reduce lung weight; also recorded: significant reduction in mean lung weight; also recorded: markedly reduce lung weight”; the “lung pathology with trichrome stain (fibrosis)” value is on record as “effective at reducing fibrosis”; the “Modified Ashcroft Index Score compared to the vehicle group” value is “significant reduction”; the “general fibrosis score, difference vs vehicle, p (unpaired t-test)” value worked out at 0.0979. In assay [2], the “Inflammation score, difference vs vehicle, p (unpaired t-test)” value is 0.0544 and the “Modified Ashcroft Index score, difference vs vehicle, p (unpaired t-test)” value was 0.0199. In assay [2] (FIG. 3), the “total lung hydroxyproline content vs vehicle-treated mice” value is “reduce lung hydroxyproline content; also recorded: significant reduction; also recorded: markedly reduce”. Besides, in assay [2] (setting [3]), the “results compared to pirfenadone” value is “superior to the results using pirfenadone” and the “results compared to treatment with anti-TGFbeta” value is “superior to treatment with anti-TGFbeta”.
“galactoarabino-rhamnogalacturonate [GR-MD-02]”: in assay [1] (Day 21, GR-MD-02 60 mg/kg IV days 10, 13, 16, 20, FIG. 9), the “lung weight vs control animals” value was “decreased lung weight of the GR-MD-02 treated group as compared to control animals, this difference did not reach statistical significance”. For the same substance, in assay [1] (Day 21, GR-MD-02 60 mg/kg IV days 10, 13, 16, 20, did not reach significance, FIG. 10), the “reduction of the increase in hydroxyproline” value worked out at 50%. In assay [1], the “lung pathology with trichrome stain (fibrosis)” value is reported as “effective at reducing fibrosis”, the “lung pathology with H & E (fibrosis)” value is reported as “marked decrease in fibrous tissue”, the “overall antifibrotic treatment effect” value is “effective at reducing pulmonary fibrosis; also recorded: strongest anifibrotic effect; also recorded: more effective than GM-CT-01” and the “Modified Ashcroft Index score vs vehicle” value was “reduction in the Aschroft score”. In assay [1], the “general fibrosis score vs vehicle” value is reported as “reduction in the fibrosis score”, the “Inflammation score vs vehicle” value is “reduction in inflammation score” and the “percent of fibrotic lung (percent of lung affected)” value is on record as “tended to have reduced percent of fibrotic lung”. Besides, in assay [2], the “lung weight vs vehicle-treated mice” value was “significantly reduce lung weight; also recorded: significant reduction in mean lung weight; also recorded: markedly reduce lung weight”; the “lung pathology with trichrome stain (fibrosis)” value is “effective at reducing fibrosis”; the “Modified Ashcroft Index Score compared to the vehicle group” value is listed as “significant reduction”; the “general fibrosis score, difference vs vehicle, p (unpaired t-test)” value was 0.0206. For the same substance, in assay [2], the “Inflammation score, difference vs vehicle, p (unpaired t-test)” value is 0.0508 and the “Modified Ashcroft Index score, difference vs vehicle, p (unpaired t-test)” value is on record as 0.0112. The “total lung hydroxyproline content vs vehicle-treated mice” value in assay [2] (FIG. 3) is on record as “significant reduction; also recorded: markedly reduce”. The “total lung hydroxyproline content vs vehicle-treated mice” value in assay [2] (FIG. 3, listed as GA-MD-02) was “reduce lung hydroxyproline content”. Further, the “results compared to pirfenadone” value in assay [2] (setting [3]) is “superior to the results using pirfenadone”.
